Data: patent US8415342B2, “Besifloxacin ophthalmic composition for the treatment or control of infection” (Bausch & Lomb Incorporated, priority 2008, dated 2013)
In brackets after ≈: the same amount, converted by molar mass. Read-outs that look alike come from different tables or passages of the source.

Tests used:
Format in all cases: cell-based
Legionella pneumophila = assay: microbe, parasite or virus in culture
Streptococcus pyogenes = assay: MIC, CLSI broth microdilution, clinical isolates; conditions: Streptococcus pyogenes (N = 101)
[1] = tested on: Staphylococcus haemolyticus; assay: MIC, CLSI broth microdilution, clinical isolates; conditions: Staphylococcus haemolyticus (N = 101)
Citrobacter koseri = assay: MIC, CLSI broth microdilution, clinical isolates; conditions: Citrobacter koseri (N = 100)
Streptococcus pneumoniae = assay: MIC, CLSI broth microdilution, clinical isolates
[2] = tested on: Staphylococcus lugdunensis; assay: MIC, CLSI broth microdilution, clinical isolates; conditions: Staphylococcus lugdunensis (N = 15)
S. aureus = assay: MIC of clinical trial isolates, Studies 373, 433, 434; conditions: Staphylococcus aureus
Haemophilus influenzae = assay: MIC, CLSI broth microdilution, clinical isolates; conditions: for MIC50 / MIC90: Haemophilus influenzae
Viridans streptococci = assay: MIC, CLSI broth microdilution, clinical isolates; conditions: Viridans streptococci (N = 156)
Klebsiella oxytoca = assay: MIC, CLSI broth microdilution, clinical isolates; conditions: Klebsiella oxytoca (N = 50)
Moraxella catarrhalis = assay: MIC, CLSI broth microdilution, clinical isolates; conditions: Moraxella catarrhalis (N = 101)
S. epidermidis = assay: MIC of clinical trial isolates, Studies 373, 433, 434; conditions: Staphylococcus epidermidis
Staphylococcus hominis = assay: MIC, CLSI broth microdilution, clinical isolates; conditions: Staphylococcus hominis (N = 50)
Streptococcus agalactiae = assay: MIC, CLSI broth microdilution, clinical isolates; conditions: Streptococcus agalactiae (N = 100)
[3] = Streptococcus pneumoniae (PSSP, N = 31)
[4] = Haemophilus influenzae (all phenotypes, N = 40)
[5] = Haemophilus influenzae (bla negative, N = 24)
[6] = Haemophilus influenzae (bla positive, N = 16)

N[C@@H]1CCCCN(c2c(F)cc3c(=O)c(C(=O)O)cn(C4CC4)c3c2Cl)C1 [Besifloxacin, (R)-(+)-(3-amino-2,3,4,5,6,7-hexahydro-1H-azepin-1-yl)-8-chloro-1-cyclopropyl-6-fluoro-1,4,-dihydro-4-oxo-3-quinolinecarboxylic acid]
MIC50 (Legionella pneumophila; Legionella pneumophila): 0.03 µg/mL (≈ 0.0762 µM)
MIC90 (Legionella pneumophila; Legionella pneumophila): 0.03 µg/mL (≈ 0.0762 µM)
MIC Range (Legionella pneumophila; Legionella pneumophila (N = 50)): 0.015 to 0.06 µg/mL
MIC Range (Streptococcus pyogenes): 0.03 to 0.06 µg/mL
MIC50 (Streptococcus pyogenes; read-out: MIC50): 0.03 µg/mL (≈ 0.0762 µM)
MIC90 (Streptococcus pyogenes; read-out: MIC90): 0.06 µg/mL (≈ 0.152 µM)
MIC50 [1]: 0.5 µg/mL (≈ 1.27 µM)
MIC90 [1]: 1 µg/mL (≈ 2.54 µM)
MIC Range [1]: 0.015 to 4 µg/mL
MIC50 (Citrobacter koseri): 0.06 µg/mL (≈ 0.152 µM)
MIC90 (Citrobacter koseri): 0.25 µg/mL (≈ 0.635 µM)
MIC Range (Streptococcus pneumoniae; Streptococcus pneumoniae (PISP, N = 2)): 0.06 to 0.12 µg/mL
MIC Range (Streptococcus pneumoniae; Streptococcus pneumoniae (PRSP, N = 2)): 0.03 to 0.06 µg/mL
MIC50 (Streptococcus pneumoniae; [3]): 0.06 µg/mL (≈ 0.152 µM)
MIC90 (Streptococcus pneumoniae; [3]): 0.06 µg/mL (≈ 0.152 µM)
MIC Range (Streptococcus pneumoniae; [3]): 0.015 to 0.5 µg/mL
MIC Range (Streptococcus pneumoniae; Streptococcus pneumoniae (all phenotypes, N = 35)): 0.015 to 0.5 µg/mL
MIC50 (Streptococcus pneumoniae; Streptococcus pneumoniae (all phenotypes, N = 35), read-out: MIC50): 0.06 µg/mL (≈ 0.152 µM)
MIC90 (Streptococcus pneumoniae; Streptococcus pneumoniae (all phenotypes, N = 35), read-out: MIC90): 0.06 µg/mL (≈ 0.152 µM)
MIC50 [2]: 0.06 µg/mL (≈ 0.152 µM)
MIC90 [2]: 0.5 µg/mL (≈ 1.27 µM)
MIC Range [2]: 0.015 to 2 µg/mL
MIC90 (S. aureus; MRSA, S. aureus MRSA-CR, N 17, read-out: MIC90): 4 µg/mL
MIC90 (S. aureus; MRSA, S. aureus MRSA-CS, N 9, read-out: MIC90 (due to limited isolates, highest MIC value is given)): 0.06 µg/mL
MIC90 (S. aureus; MRSA, Staphylococcus aureus (MRSA-CR), isolates of studies 373, 433, 434, read-out: MIC90): 4 µg/mL
MIC90 (S. aureus; MSSA, S. aureus MSSA-CR, N 17, read-out: MIC90): 2 µg/mL
MIC90 (S. aureus; MSSA, S. aureus MSSA-CS, N 144, read-out: MIC90): 0.06 µg/mL
MIC90 (S. aureus; MSSA, Staphylococcus aureus (MSSA-CR), isolates of studies 373, 433, 434, read-out: MIC90): 2 µg/mL
MIC90 (S. aureus; Staphylococcus aureus (all phenotypes), isolates of studies 373, 433, 434, read-out: MIC90): 0.5 µg/mL
MIC Range (Haemophilus influenzae; [4]): ≦0.004-0.03 μg/mL
MIC Range (Haemophilus influenzae; [5]): ≦0.004-0.03 μg/mL
MIC Range (Haemophilus influenzae; [6]): 0.008 to 0.03 µg/mL
MIC50 (Haemophilus influenzae; [4]): 0.015 µg/mL (≈ 0.0381 µM)
MIC90 (Haemophilus influenzae; [4]): 0.015 µg/mL (≈ 0.0381 µM)
MIC50 (Haemophilus influenzae; [5]): 0.015 µg/mL (≈ 0.0381 µM)
MIC90 (Haemophilus influenzae; [5]): 0.015 µg/mL (≈ 0.0381 µM)
MIC50 (Haemophilus influenzae; [6]): 0.015 µg/mL (≈ 0.0381 µM)
MIC90 (Haemophilus influenzae; [6]): 0.03 µg/mL (≈ 0.0762 µM)
MIC Range (Viridans streptococci): 0.015 to 2 µg/mL
MIC50 (Viridans streptococci; read-out: MIC50): 0.06 µg/mL (≈ 0.152 µM)
MIC90 (Viridans streptococci; read-out: MIC90): 0.12 µg/mL (≈ 0.305 µM)
MIC50 (Klebsiella oxytoca): 0.12 µg/mL (≈ 0.305 µM)
MIC90 (Klebsiella oxytoca): 1 µg/mL (≈ 2.54 µM)
MIC Range (Klebsiella oxytoca): 0.06 to 8 µg/mL
MIC50 (Moraxella catarrhalis): 0.03 µg/mL (≈ 0.0762 µM)
MIC90 (Moraxella catarrhalis): 0.03 µg/mL (≈ 0.0762 µM)
MIC Range (Moraxella catarrhalis): 0.015 to 0.12 µg/mL
MIC90 (S. epidermidis; MRSE, S. epidermidis MRSE-CR, N 24, read-out: MIC90): 4 µg/mL
MIC90 (S. epidermidis; MRSE, S. epidermidis MRSE-CS, N 27, read-out: MIC90): 0.06 µg/mL
MIC90 (S. epidermidis; S. epidermidis MSSE-CR, N 10, read-out: MIC90): 1 µg/mL
MIC90 (S. epidermidis; S. epidermidis MSSE-CS, N 50, read-out: MIC90): 0.06 µg/mL
MIC90 (S. epidermidis; isolates of studies 373, 433, 434, read-out: MIC90): 0.5 µg/mL
MIC50 (Staphylococcus hominis): 0.25 µg/mL (≈ 0.635 µM)
MIC90 (Staphylococcus hominis): 1 µg/mL (≈ 2.54 µM)
MIC Range (Staphylococcus hominis): 0.015 to 2 µg/mL
MIC Range (Streptococcus agalactiae): 0.03 to 0.12 µg/mL
MIC50 (Streptococcus agalactiae; read-out: MIC50): 0.06 µg/mL (≈ 0.152 µM)
MIC90 (Streptococcus agalactiae; read-out: MIC90): 0.06 µg/mL (≈ 0.152 µM)
